Values quoted from earlier work as cited in patent US20100047195A1, “LIP BALM AND METHOD OF TREATING LIP CONDITIONS” (priority 2007, published 2010).

Details: oral isotretinoin; estimated

CC1=C(/C=C/C(C)=C/C=C/C(C)=C\C(=O)O)C(C)(C)CCC1 [isotretinoin, 13-cis-retinoic acid]
patients treated who develop cheilitis (cracking, soreness and other inflammation of the lips): over 90%
